Results reported in patent US10640506B2, “Cyclobutyl substituted pyrrolopyridine and pyrrolopyrimidines derivatives as JAK inhibitors” (Incyte Corporation, priority 2010, dated 2020).
pIC50: −log10 of the molar value. Read-outs that look alike come from different tables or passages of the source.

What was measured:
[1] = biological target: human JAK1 (a.a. 837-1142) (Homo sapiens, UniProt P23458); experiment: In vitro JAK kinase assay (HTRF, phosphorylation of biotinylated peptide), JAK1; assay type: biochemical; details: 1 mM ATP
Description: Compounds herein were tested for inhibitory activity of JAK targets according to the following in vitro assay described in Park et al., Analytical Biochemistry 1999, 269, 94-104. The catalytic domains of human JAK1 (a.a. 837-1142) and JAK2 (a.a. 828-1132) with an N-terminal His tag were expressed using baculovirus in insect cells and purified. The catalytic activity of JAK1 and JAK2 was assayed by measuring the phosphorylation of a biotinylated peptide. The phosphorylated peptide was detected by homogenous time resolved fluorescence (HTRF). […] Reactions were carried out at room temperature for 1 hour and then stopped with 20 μL 45 mM EDTA, 300 nM SA-APC, 6 nM Eu-Py20 in assay buffer (Perkin Elmer, Boston, Mass.). Binding to the Europium labeled antibody took place for 40 minutes and HTRF signal was measured on a Fusion plate reader (Perkin Elmer, Boston, Mass.). […] Data is indicated as ranges, wherein “+” is less than 10 nM; “++” is 10 nM to 25 nM; “+++” is greater than 25 nM to 100 nM; and “++++” is greater than 100 nM. Greater than 25 nM to 100 nM specifies a range with a lower endpoint “at greater than 25 nM” and an upper endpoint at 100 nM.

JAK2 (a.a. 828-1132) = biological target: T1, JAK2 (a.a. 828-1132) (Homo sapiens, UniProt O60674); experiment: In vitro JAK kinase assay (HTRF, phosphorylation of biotinylated peptide), JAK2; assay type: biochemical; details: 1 mM ATP
T1 construct: JAK2 (a.a. 828-1132); His tag (N)
Description: Compounds herein were tested for inhibitory activity of JAK targets according to the following in vitro assay described in Park et al., Analytical Biochemistry 1999, 269, 94-104. The catalytic domains of human JAK1 (a.a. 837-1142) and JAK2 (a.a. 828-1132) with an N-terminal His tag were expressed using baculovirus in insect cells and purified. The catalytic activity of JAK1 and JAK2 was assayed by measuring the phosphorylation of a biotinylated peptide. The phosphorylated peptide was detected by homogenous time resolved fluorescence (HTRF). […] Reactions were carried out at room temperature for 1 hour and then stopped with 20 μL 45 mM EDTA, 300 nM SA-APC, 6 nM Eu-Py20 in assay buffer (Perkin Elmer, Boston, Mass.). Binding to the Europium labeled antibody took place for 40 minutes and HTRF signal was measured on a Fusion plate reader (Perkin Elmer, Boston, Mass.). See Tables A-F for data related to compounds of the Examples (at 1 mM). Data is indicated as ranges, wherein “+” is less than 10 nM; “++” is 10 nM to 25 nM; “+++” is greater than 25 nM to 100 nM; and “++++” is greater than 100 nM. Greater than 25 nM to 100 nM specifies a range with a lower endpoint “at greater than 25 nM” and an upper endpoint at 100 nM.

T1 sequence (O60674 828-1132): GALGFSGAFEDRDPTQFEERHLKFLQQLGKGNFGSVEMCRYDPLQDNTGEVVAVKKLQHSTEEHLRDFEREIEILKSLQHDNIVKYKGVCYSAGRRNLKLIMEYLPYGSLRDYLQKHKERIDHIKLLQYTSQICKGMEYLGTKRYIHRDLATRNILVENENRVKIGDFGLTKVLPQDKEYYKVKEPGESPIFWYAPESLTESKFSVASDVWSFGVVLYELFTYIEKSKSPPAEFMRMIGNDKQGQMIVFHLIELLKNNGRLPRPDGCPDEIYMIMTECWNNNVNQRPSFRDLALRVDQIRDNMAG
human JAK1 (a.a. 837-1142), sequence (P23458 849-1154): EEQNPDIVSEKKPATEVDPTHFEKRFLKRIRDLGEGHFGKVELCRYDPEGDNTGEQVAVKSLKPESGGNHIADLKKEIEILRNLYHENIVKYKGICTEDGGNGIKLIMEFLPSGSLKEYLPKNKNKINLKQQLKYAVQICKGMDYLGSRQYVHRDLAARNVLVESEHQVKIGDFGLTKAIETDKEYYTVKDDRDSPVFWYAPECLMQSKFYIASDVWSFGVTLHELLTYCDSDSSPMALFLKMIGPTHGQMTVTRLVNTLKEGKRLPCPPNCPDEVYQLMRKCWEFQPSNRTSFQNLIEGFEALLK

SMILES	pIC50 ([1]; Table F)	pIC50 (JAK2 (a.a. 828-1132); Table F)	other results
N#CC[C@]1(n2cc(-c3ncnc4[nH]ccc34)cn2)C[C@H](N2CCN(C(=O)c3cc(F)cc(C#N)c3)CC2)C1 [Example 12b, 3-[(4-{trans-3-(cyanomethyl)-3-[4-(7H-pyrrolo[2,3-d]pyrimidin-4-yl)-1H-pyrazol-1-yl]cyclobutyl}piperazin-1-yl)carbonyl]-5-fluorobenzonitrile]	–	–	pIC50 ([1]; Table B, read-out: JAK1 IC50): > 8.00; pIC50 (JAK2 (a.a. 828-1132); Table B, read-out: JAK2 IC50): 7.60 to 8.00
N#CC[C@]1(n2cc(-c3ncnc4[nH]ccc34)cn2)C[C@H](N2CCN(C(=O)c3cc(CN)cc(C(F)(F)F)n3)CC2)C1 [Example 67, {trans-3-(4-{[4-(aminomethyl)-6-(trifluoromethyl)pyridin-2-yl]carbonyl}piperazin-1-yl)-1-[4-(7H-pyrrolo[2,3-d]pyrimidin-4-yl)-1H-pyrazol-1-yl]cyclobutyl}acetonitrile]	> 8.00	7.00 to 7.60	–
CC(C)CNC(=O)N1CCN([C@H]2C[C@](CC#N)(n3cc(-c4ncnc5[nH]ccc45)cn3)C2)CC1 [Example 101, 4-{trans-3-(cyanomethyl)-3-[4-(7H-pyrrolo[2,3-d]pyrimidin-4-yl)-1H-pyrazol-1-yl]cyclobutyl}-N-isobutylpiperazine-1-carboxamide]	> 8.00	7.00 to 7.60	–
N#CC[C@]1(n2cc(-c3ncnc4[nH]ccc34)cn2)C[C@H](N2CCN(C(=O)N3CCCC3)CC2)C1 [Example 19, {trans-3-[4-(pyrrolidin-1-ylcarbonyl)piperazin-1-yl]-1-[4-(7H-pyrrolo[2,3-d]pyrimidin-4-yl)-1H-pyrazol-1-yl]cyclobutyl}acetonitrile]	–	–	pIC50 ([1]; Table B, read-out: JAK1 IC50): 7.60 to 8.00; pIC50 (JAK2 (a.a. 828-1132); Table B, read-out: JAK2 IC50): < 7.00
N#CC[C@]1(n2cc(-c3ncnc4[nH]ccc34)cn2)C[C@H](N2CCC(Oc3cc(CN4CCC[C@H]4CO)cc(C(F)(F)F)n3)CC2)C1 [Example 161, {trans-3-(4-{[4-{[(2S)-2-(hydroxymethyl)pyrrolidin-1-yl]methyl}-6-(trifluoromethyl)pyridin-2-yl]oxy}piperidin-1-yl)-1-[4-(7H-pyrrolo[2,3-d]pyrimidin-4-yl)-1H-pyrazol-1-yl]cyclobutyl}acetonitrile]	> 8.00	7.00 to 7.60	–
N#CC[C@]1(n2cc(-c3ncnc4[nH]ccc34)cn2)C[C@H](N2CCN(C(=O)c3cc(CN4CCCC4)nc(C(F)(F)F)n3)CC2)C1 [Example 53, {trans-3-(4-{[6-(pyrrolidin-1-ylmethyl)-2-(trifluoromethyl)pyrimidin-4-yl]carbonyl}piperazin-1-yl)-1-[4-(7H-pyrrolo[2,3-d]pyrimidin-4-yl)-1H-pyrazol-1-yl]cyclobutyl}acetonitrile]	> 8.00	7.00 to 7.60	–
CN(C)C1(c2cc(C(=O)N3CCN([C@H]4C[C@](CC#N)(n5cc(-c6ncnc7[nH]ccc67)cn5)C4)CC3)nc(C(F)(F)F)n2)CCC1 [Example 63, {trans-3-(4-{[6-[1-(dimethylamino)cyclobutyl]-2-(trifluoromethyl)pyrimidin-4-yl]carbonyl}piperazin-1-yl)-1-[4-(7H-pyrrolo[2,3-d]pyrimidin-4-yl)-1H-pyrazol-1-yl]cyclobutyl}acetonitrile]	> 8.00	7.00 to 7.60	–
CCNCc1cc(OC2CCN([C@H]3C[C@](CC#N)(n4cc(-c5ncnc6[nH]ccc56)cn4)C3)CC2)nc(C(F)(F)F)n1 [Example 143, {trans-3-(4-{[6-[(ethylamino)methyl]-2-(trifluoromethyl)pyrimidin-4-yl]oxy}piperidin-1-yl)-1-[4-(7H-pyrrolo[2,3-d]pyrimidin-4-yl)-1H-pyrazol-1-yl]cyclobutyl}acetonitrile]	7.60 to 8.00	7.00 to 7.60	–
[2H][C@]1(N2CCN(C(=O)c3ccnc(C(F)(F)F)n3)CC2)C[C@](CC#N)(n2cc(-c3ncnc4[nH]ccc34)cn2)C1 [Example 31, [trans-1-[4-(7H-pyrrolo[2,3-d]pyrimidin-4-yl)-1H-pyrazol-1-yl]-3-(4-{[2-(trifluoromethyl)pyrimidin-4-yl]carbonyl}piperazin-1-yl)cyclobutyl]acetonitrile-d1]	–	–	pIC50 ([1]; Table D, read-out: JAK1 IC50): > 8.00; pIC50 (JAK2 (a.a. 828-1132); Table D, read-out: JAK2 IC50): 7.00 to 7.60
COCc1cc(OC2CCN([C@H]3C[C@](CC#N)(n4cc(-c5ncnc6[nH]ccc56)cn4)C3)CC2)nc(C(F)(F)F)c1 (single isomer, unassigned) [Example 122, {trans-3-(4-{[4-(methoxymethyl)-6-(trifluoromethyl)pyridin-2-yl]oxy}piperidin-1-yl)-1-[4-(7H-pyrrolo[2,3-d]pyrimidin-4-yl)-1H-pyrazol-1-yl]cyclobutyl}acetonitrile]	> 8.00	< 7.00	–
[2H][C@]1(N2CCN(C(=O)c3ccnc(C(F)(F)F)n3)CC2)C[C@@](CC#N)(n2cc(-c3ncnc4[nH]ccc34)cn2)C1 [Example 30, [cis-1-[4-(7H-pyrrolo[2,3-d]pyrimidin-4-yl)-1H-pyrazol-1-yl]-3-(4-{[2-(trifluoromethyl)pyrimidin-4-yl]carbonyl}piperazin-1-yl)cyclobutyl]acetonitrile-d1]	–	–	pIC50 ([1]; Table C, read-out: JAK1 IC50): > 8.00; pIC50 (JAK2 (a.a. 828-1132); Table C, read-out: JAK2 IC50): < 7.00
N#CC[C@]1(n2cc(-c3ncnc4[nH]ccc34)cn2)C[C@H](N2CCN(C(=O)c3cc(CN4CCC4)nc(C(F)(F)F)n3)CC2)C1 [Example 49, {trans-3-(4-{[6-(azetidin-1-ylmethyl)-2-(trifluoromethyl)pyrimidin-4-yl]carbonyl}piperazin-1-yl)-1-[4-(7H-pyrrolo[2,3-d]pyrimidin-4-yl)-1H-pyrazol-1-yl]cyclobutyl}acetonitrile]	> 8.00	7.00 to 7.60	–
Cc1cc(OC2CCN([C@H]3C[C@](CC#N)(n4cc(-c5ncnc6[nH]ccc56)cn4)C3)CC2)nc(C(F)(F)F)n1 [Example 145, {trans-3-(4-{[6-methyl-2-(trifluoromethyl)pyrimidin-4-yl]oxy}piperidin-1-yl)-1-[4-(7H-pyrrolo[2,3-d]pyrimidin-4-yl)-1H-pyrazol-1-yl]cyclobutyl}acetonitrile]	7.60 to 8.00	< 7.00	–
N#CC[C@]1(n2cc(-c3ncnc4[nH]ccc34)cn2)C[C@@H](N2CCN(C(=O)c3ccnc(C(F)F)c3F)CC2)C1 [Example 11a, {cis-3-{4-[2-(difluoromethyl)-3-fluoroisonicotinoyl]piperazin-1-yl}-1-[4-(7H-pyrrolo[2,3-d]pyrimidin-4-yl)-1H-pyrazol-1-yl]cyclobutyl}acetonitrile]	–	–	pIC50 ([1]; Table A, read-out: JAK1 IC50): 7.60 to 8.00; pIC50 (JAK2 (a.a. 828-1132); Table A, read-out: JAK2 IC50): < 7.00
CC(C)(C)NCc1cc(OC2CCN([C@H]3C[C@](CC#N)(n4cc(-c5ncnc6[nH]ccc56)cn4)C3)CC2)nc(C(F)(F)F)c1 [Example 127, {trans-3-(4-{[4-[(tert-butylamino)methyl]-6-(trifluoromethyl)pyridin-2-yl]oxy}piperidin-1-yl)-1-[4-(7H-pyrrolo[2,3-d]pyrimidin-4-yl)-1H-pyrazol-1-yl]cyclobutyl}acetonitrile]	> 8.00	7.00 to 7.60	–
CC(C)(C)CNC(=O)N1CCN([C@H]2C[C@](CC#N)(n3cc(-c4ncnc5[nH]ccc45)cn3)C2)CC1 [Example 100, 4-{trans-3-(cyanomethyl)-3-[4-(7H-pyrrolo[2,3-d]pyrimidin-4-yl)-1H-pyrazol-1-yl]cyclobutyl}-N-(2,2-dimethylpropyl)piperazine-1-carboxamide]	7.60 to 8.00	< 7.00	–
N#CC[C@]1(n2cc(-c3ncnc4[nH]ccc34)cn2)C[C@H](N2CCN(Cc3c(F)ccc(F)c3Cl)CC2)C1 [Example 16b, {trans-3-[4-(2-chloro-3,6-difluorobenzyl)piperazin-1-yl]-1-[4-(7H-pyrrolo[2,3-d]pyrimidin-4-yl)-1H-pyrazol-1-yl]cyclobutyl}acetonitrile]	–	–	pIC50 ([1]; Table B, read-out: JAK1 IC50): > 8.00; pIC50 (JAK2 (a.a. 828-1132); Table B, read-out: JAK2 IC50): 7.00 to 7.60
CCN(CC)Cc1cc(OC2CCN([C@H]3C[C@](CC#N)(n4cc(-c5ncnc6[nH]ccc56)cn4)C3)CC2)cc(C(F)(F)F)c1 [Example 139, {trans-3-{4-[3-[(diethylamino)methyl]-5-(trifluoromethyl)phenoxy]piperidin-1-yl}-1-[4-(7H-pyrrolo[2,3-d]pyrimidin-4-yl)-1H-pyrazol-1-yl]cyclobutyl}acetonitrile]	> 8.00	< 7.00	–
